Test [1] concerns the target T1, Muscarinic acetylcholine receptor M2 (Homo sapiens, UniProt P08172).
T1 sequence (P08172 whole entry): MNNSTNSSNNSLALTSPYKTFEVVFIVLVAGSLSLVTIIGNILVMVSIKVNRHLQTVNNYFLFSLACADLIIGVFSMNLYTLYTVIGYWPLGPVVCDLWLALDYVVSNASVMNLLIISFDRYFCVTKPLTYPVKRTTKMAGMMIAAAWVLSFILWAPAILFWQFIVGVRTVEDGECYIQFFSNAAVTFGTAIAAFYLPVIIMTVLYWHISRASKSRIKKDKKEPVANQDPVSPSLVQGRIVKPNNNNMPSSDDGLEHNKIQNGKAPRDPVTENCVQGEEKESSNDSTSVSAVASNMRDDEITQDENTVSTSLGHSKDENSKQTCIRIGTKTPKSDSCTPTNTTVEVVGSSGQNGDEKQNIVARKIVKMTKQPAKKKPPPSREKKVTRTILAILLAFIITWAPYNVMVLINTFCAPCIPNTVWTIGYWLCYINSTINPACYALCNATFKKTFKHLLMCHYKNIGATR
As to the kind of experiment: Antagonist activity at cloned muscarinic M2 receptor expressed in CHO cells by measuring calcium mobilization. Format: functional, cell-based.

Test [2] has as its target T2, Muscarinic acetylcholine receptor M1 (Homo sapiens, UniProt P11229).
T2 sequence (P11229 whole entry): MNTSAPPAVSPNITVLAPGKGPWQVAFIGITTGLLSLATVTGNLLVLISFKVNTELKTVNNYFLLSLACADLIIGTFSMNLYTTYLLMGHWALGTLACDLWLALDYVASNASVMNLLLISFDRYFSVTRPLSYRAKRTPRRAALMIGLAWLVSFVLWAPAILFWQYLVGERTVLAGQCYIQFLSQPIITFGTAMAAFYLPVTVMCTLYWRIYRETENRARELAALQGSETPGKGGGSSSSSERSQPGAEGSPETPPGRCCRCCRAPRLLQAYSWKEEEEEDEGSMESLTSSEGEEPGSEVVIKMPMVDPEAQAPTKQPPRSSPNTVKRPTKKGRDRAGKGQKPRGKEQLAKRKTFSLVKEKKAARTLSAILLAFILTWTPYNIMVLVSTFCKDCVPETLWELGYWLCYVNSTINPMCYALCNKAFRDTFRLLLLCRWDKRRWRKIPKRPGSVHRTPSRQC
As to the kind of experiment: Antagonist activity at cloned muscarinic M1 receptor expressed in CHO cells by measuring calcium mobilization. In kind it is functional, cell-based. In general terms: Calcium assays in cells follow changes in intracellular calcium, usually with a dye or a luminescent sensor.

Test [3] addresses Muscarinic acetylcholine receptor M3 (Homo sapiens, UniProt P20309). As to the kind of experiment: Antagonist activity at cloned muscarinic M3 receptor expressed in CHO cells by measuring calcium mobilization. Format: functional, cell-based.
The target in test [4] is Muscarinic acetylcholine receptor M1 and M3 (Homo sapiens) (UniProt P20309+P11229). As to the kind of experiment: Selectivity for cloned muscarinic M3 receptor over cloned muscarinic M1 receptor.
Chain of Muscarinic acetylcholine receptor M1 and M3 (Homo sapiens) (P20309 whole entry, looked up, one chain of several): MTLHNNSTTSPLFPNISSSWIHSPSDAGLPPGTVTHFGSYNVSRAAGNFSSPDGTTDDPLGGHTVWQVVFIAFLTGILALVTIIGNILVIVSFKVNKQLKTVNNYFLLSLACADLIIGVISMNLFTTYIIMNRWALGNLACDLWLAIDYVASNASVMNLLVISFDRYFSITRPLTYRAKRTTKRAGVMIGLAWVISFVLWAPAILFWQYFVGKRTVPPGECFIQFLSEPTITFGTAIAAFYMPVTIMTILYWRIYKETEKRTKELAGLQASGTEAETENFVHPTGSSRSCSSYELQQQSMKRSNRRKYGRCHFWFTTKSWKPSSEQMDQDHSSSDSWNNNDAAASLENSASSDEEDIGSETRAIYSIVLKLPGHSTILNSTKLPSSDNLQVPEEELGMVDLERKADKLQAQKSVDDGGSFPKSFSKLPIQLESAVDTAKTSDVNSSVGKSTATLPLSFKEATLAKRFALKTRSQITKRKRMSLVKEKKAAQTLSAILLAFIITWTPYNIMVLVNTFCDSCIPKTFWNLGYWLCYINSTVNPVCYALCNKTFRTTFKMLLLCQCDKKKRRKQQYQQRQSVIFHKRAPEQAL
Test [5] has as its target Muscarinic acetylcholine receptors; M2 & M3 (Homo sapiens) (UniProt P20309+P08172). As to the kind of experiment: Selectivity for cloned muscarinic M3 receptor over cloned muscarinic M2 receptor.
The species entered for test [6] is Mus musculus. Put plainly: Effect on metacholine-induced bronchoconstriction in mouse assessed as bronchoprotection at 5 ug after 15 mins. Format: functional.
Test [7] is filed under the species Mus musculus. Put plainly: Effect on metacholine-induced bronchoconstriction in mouse assessed as bronchoprotection at 5 ug after 5 hrs. Format: functional.
The species entered for test [8] is Mus musculus. As to the kind of experiment: Effect on metacholine-induced bronchoconstriction in mouse assessed as bronchoprotection at 5 ug after 24 hrs. Format: functional.

Chain of Muscarinic acetylcholine receptor M3 (P20309 whole entry): as the sequence (P20309 whole entry, looked up, one chain of several) above

In general, IC50 refers to the concentration needed to halve the response being measured. As to `C[N+]1(C)[C@@H]2CC[C@H]1C[C@H](OC(=O)N(Cc1ccccc1)c1cccs1)C2.[Br-]`, the IC50 in test [1] amounted to 13.8 nM; in test [2], 2.7 nM; in test [3], 3 nM. The Ratio IC50 came out at 0.2 in test [4] and 5.7 in test [5]. Further, the Activity in the test listed under Mus musculus [6] amounted to 85%; in the test filed under Mus musculus [7] it was 80%.
As for `C[N+]1(C)[C@@H]2CC[C@H]1C[C@@H](OC(=O)N(Cc1ccsc1)c1ccccc1)C2.[Br-]`, the 50% inhibitory concentration (IC50) in test [1] turned out to be 30.2 nM; in test [2], 2.6 nM; in test [3] it was 2.8 nM. Moreover, the figures for the Ratio IC50 in test [4] and in test [5] were 0.9 and 10.8, respectively. Also, the Activity in the test listed under Mus musculus [6] is 85%.
For `C[N+]1(C)[C@@H]2CC[C@H]1C[C@H](OC(=O)N(Cc1cccs1)c1ccccc1)C2.[Br-]`, the IC50 in test [1] stood at 12.5 nM; in test [2] it was 2.4 nM; in test [3] it was 2.3 nM. The Ratio IC50 was 1 in test [4] and 5.4 in test [5]. In the test listed under Mus musculus [6], the Activity was 85%.
Regarding `C[N+]1(C)[C@@H]2CC[C@H]1C[C@H](OC(=O)N(Cc1ccccc1)c1ccccc1)C2.[Br-]`, the IC50 worked out at 48 nM in test [1], 4.5 nM in test [2] and 4.6 nM in test [3]. Further, the Ratio IC50 was determined as 1 in test [4] and 10.4 in test [5]. Further, the Activity in the test filed under Mus musculus [6] is listed as 85%.
Regarding `C[N+]1(C)[C@@H]2CC[C@H]1C[C@H](OC(=O)N(Cc1ccccc1)c1ccsc1)C2.[Br-]`, the concentration for half-maximal inhibition (IC50) in test [1] is 10.9 nM; in test [2], 2.1 nM; in test [3], 2 nM. In addition, the results for the Ratio IC50 in test [4] and in test [5] were 1 and 5.5, respectively. Also, the Activity was 85% in the test listed under Mus musculus [6], 80% in the test filed under Mus musculus [7] and 25% in the test filed under Mus musculus [8].
As for `C[N+]1(C)[C@@H]2CC[C@H]1C[C@@H](OC(=O)N(Cc1ccsc1)c1ccsc1)C2.[Br-]`, the IC50 was found to be 7.2 nM in test [1], 1.6 nM in test [2] and 1 nM in test [3]. The Ratio IC50 in test [4] came to 1.6; in test [5], 7.2. Also, the Activity in the test listed under Mus musculus [6] came out at 85%.
In the case of `COc1ccc(CN(C(=O)O[C@H]2C[C@H]3CC[C@@H](C2)[N+]3(C)C)c2ccccc2)cc1`, the results for the concentration for half-maximal inhibition (IC50) in test [1], in test [2] and in test [3] were 688 nM, 86 nM and 154 nM, respectively. Further, the Ratio IC50 in test [4] stood at 0.6; in test [5] it was 4.4.
For the compound `Cc1ccoc1CN(C(=O)O[C@@H]1C[C@H]2CC[C@@H](C1)N2C)c1ccccc1`, the IC50 in test [1] was determined as 468 nM; in test [2], 349 nM; in test [3], 428 nM. Also, the results for the Ratio IC50 in test [4] and in test [5] were 0.8 and 1.1, respectively.

These data come from ChEMBL document CHEMBL1137565, “Discovery of novel 8-azoniabicyclo[3.2.1]octane carbamates as muscarinic acetylcholine receptor antagonists” (Bioorg Med Chem Lett, 2007).
